Measurements taken from patent US9273043B2, “TRPV1 antagonists including dihydroxy substituent and uses thereof” (Purdue Pharma L.P., priority 2011, dated 2016).

Columns and labels:
[1] = In vivo assay of body temperature increase (rectal body temperature); parameters: species or system rat; details: rats, oral, 10 mL/kg of 1 mg/mL in 0.5% methylcellulose; greatest ΔTb versus vehicle control at 0.5, 1 or 2 hrs
How it was run: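 Male Crl/SD rats (7 weeks), acclimated and preselected for rectal temperature 37.0–37.7° C., given compound orally once at 1 mg/mL in 0.5% methylcellulose, 10 mL/kg. Rectal temperature by thermistor at 0.5, 1 and 2 h post-dose; ΔTb = treated group mean minus vehicle group mean, maximum across time points reported.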

human TRPV1 = human TRPV1 (Homo sapiens (Human), UniProt Q8NER1); experiment: Human TRPV1 heat-based assay, hTRPV1/CHO cells (hHeat-CHO); type: cell-based; details: temperature ramp 25 to 45 °C, mean ± SEM
Sequence of human TRPV1 (Q8NER1 whole entry, looked up): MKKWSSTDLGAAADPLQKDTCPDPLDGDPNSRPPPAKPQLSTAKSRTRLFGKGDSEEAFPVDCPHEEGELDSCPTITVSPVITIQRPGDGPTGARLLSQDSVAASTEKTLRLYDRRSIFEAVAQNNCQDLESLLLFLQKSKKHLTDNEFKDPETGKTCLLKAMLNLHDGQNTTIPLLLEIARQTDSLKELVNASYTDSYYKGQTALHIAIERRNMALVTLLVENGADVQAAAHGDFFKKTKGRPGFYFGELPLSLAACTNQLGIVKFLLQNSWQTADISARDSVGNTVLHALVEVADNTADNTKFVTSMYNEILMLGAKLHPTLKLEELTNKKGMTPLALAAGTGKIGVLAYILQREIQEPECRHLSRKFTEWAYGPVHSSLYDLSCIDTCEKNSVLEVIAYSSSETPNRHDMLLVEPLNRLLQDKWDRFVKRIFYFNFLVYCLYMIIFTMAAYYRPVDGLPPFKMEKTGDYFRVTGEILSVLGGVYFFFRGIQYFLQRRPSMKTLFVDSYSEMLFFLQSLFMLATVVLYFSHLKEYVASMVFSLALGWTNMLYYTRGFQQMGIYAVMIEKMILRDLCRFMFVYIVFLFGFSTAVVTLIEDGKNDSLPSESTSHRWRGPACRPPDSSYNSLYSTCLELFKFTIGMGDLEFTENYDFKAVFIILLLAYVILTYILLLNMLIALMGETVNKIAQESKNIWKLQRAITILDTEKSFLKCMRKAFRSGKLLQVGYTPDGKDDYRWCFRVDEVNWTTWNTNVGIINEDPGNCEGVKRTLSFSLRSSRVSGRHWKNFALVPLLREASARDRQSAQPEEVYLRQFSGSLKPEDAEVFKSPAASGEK
Description: Human TRPV1 Heat-based Assay:
CHO cells stably expressing human TRPV1 (hTRPV1) were used. Functional assessment of heat-induced activation of hTRPV1 was carried out in a cell-based Ca^2+ flux assay using ABI7500 Fast Real-Time PCR System as described in Reubish et al., “Functional assessment of temperature-gated ion-channel activity using a real-time PCR machine,” www.BioTechniques.com 47(3):iii-ix (2009), which is hereby incorporated by reference. Briefly, hTRPV1/CHO cells were cultured in growth media in a tissue culture dish at 37° C. in a CO2 incubator. On the day of the assay, culture media were removed and the cells were then detached using 0.05% trypsin at 37° C. with 5% CO2, for 90 s. The detached cells were centrifuged (1000 rpm, 4 min) to remove trypsin-containing supernatant and resuspended in assay buffer (115 mM NaCl, 5.4 mM KCl, 0.8 mM MgCl2.6H2O, 1.8 mM CaCl2.2H2O, 13.8 mM D-glucose, and 20 mM HEPES). Then, the cells were loaded with 5 μM Fluo-4, a Ca^2+ reporter dye, in the presence of 2.5 mM probenecid at 37° C. with 5% CO2, for 45 min. Thereafter, the cells were washed twice with measuring buffer (assay buffer supplemented with 0.1% BSA and 3.2 mM CaCl2) then transferred to a Fast 96-well Reaction Plate (0.1 mL) (Part no. 4346907, MICROAMP, Applied Biosystems, Foster City, Calif.). The cell density was 100,000 cells/24 μL/well. A solution of the compound under test (6 μL/well) was added into each well of the 96-well plate. Thus, the reaction volume per well was 30 μL.
The plates were then placed inside an ABI7500 Fast Real-Time PCR instrument (Applied Biosystems) to read fluorescence at different temperatures using 7500 software, version 2.0.2 (Applied Biosystems). The initial temperature was set at 25° C. for 1 min. followed by a temperature ramp to 45° C. in 100 s to deliver heat to cells. [Ca^2+], response of hTRPV1/CHO cells to heat was determined as: [fluorescence read at 45° C.−fluorescence read at 25° C.].
Compound concentration response curves and IC50 values were analyzed using GraphPad Prism 4 software (GraphPad Software, La Jolla, Calif.).
The IC50 data provided in Table 6 are shown as mean±standard error of the mean; the number of trials conducted for each assay is shown in parentheses except for only a single trial where no number of trials is shown in parentheses.

| ΔTb, body temperature increase [1] | IC50 (human TRPV1) | Structure (SMILES) |
| --- | --- | --- |
| 0.2 °C | 170 ± 20 nM | Cc1cc2nc(NC(=O)N3CCN(c4ncc([C@H](O)[C@H](C)O)cc4F)CC3)sc2cc1C [C170(r), 4-(5-((1S,2S)-1,2-dihydroxypropyl)-3-fluoropyridin-2-yl)-N-(5,6-dimethylbenzo[d]thiazol-2-yl)piperazine-1-carboxamide] |
| 0.3 °C | 87 ± 13 nM | C[C@H](O)[C@@H](O)c1cnc(N2CCN(C(=O)Nc3nc4ccc(F)cc4s3)CC2)c(Cl)c1 [C4(r), 4-{3-Chloro-5-[(1S,2S)-1,2-dihydroxypropyl]pyridin-2-yl}-N-(6-fluorobenzo[d]thiazol-2-yl)piperazine-1-carboxamide] |
| 0.1 °C | – | C[C@H](O)[C@@H](O)c1cnc(N2CCN(C(=O)Nc3nc4cc(F)c(F)cc4s3)C[C@H]2C)c(F)c1 [B158(j), (R)—N-(5,6-difluorobenzo[d]thiazol-2-yl)-4-{5-[(1S,2S)-1,2-dihydroxypropyl]-3-fluoropyridin-2-yl}-3-methylpiperazine-1-carboxamide] |
| 0.4 °C | – | C[C@H]1CN(c2ncc([C@H](O)CO)cc2F)CCN1C(=O)Nc1nc2ccccc2s1 [A122(a), (S)—N-(benzo[d]thiazol-2-yl)-4-(5-((S)-1,2-dihydroxyethyl)-3-fluoropyridin-2-yl)-2-methylpiperazine-1-carboxamide] |
| 0.4 °C | – | C[C@H]1CN(c2ncc([C@H](O)CO)cc2F)CCN1C(=O)Nc1nc2cc(F)c(F)cc2s1 [A158(a), (S)—N-(5,6-difluorobenzo[d]thiazol-2-yl)-4-(5-((S)-1,2-dihydroxyethyl)-3-fluoropyridin-2-yl)-2-methylpiperazine-1-carboxamide] |
| 0.1 °C | 389 ± 83 nM | C[C@@H]1CN(C(=O)Nc2nc3ccc(F)cc3s2)CCN1c1ncc([C@H](O)CO)cc1F [A125(b), (R)-4-{5-[(S)-1,2-dihydroxyethyl]-3-fluoropyridin-2-yl}-N-(6-fluorobenzo[d]thiazol-2-yl)-3-methylpiperazine-1-carboxamide] |
| 0.3 °C | 335 ± 40 nM | C[C@H](O)[C@@H](O)c1cnc(N2CCN(C(=O)Nc3nc4ccc(F)cc4s3)CC2)c(F)c1 [C125(r), 4-(5-((1S,2S)-1,2-dihydroxypropyl)-3-fluoropyridin-2-yl)-N-(6-fluorobenzo[d]thiazol-2-yl)piperazine-1-carboxamide] |
| 0.4 °C | 155 ± 25 nM | Cc1ccc2nc(NC(=O)N3CCN(c4ncc([C@H](O)[C@H](C)O)cc4F)CC3)sc2c1 [C126(r), 4-[5-((1S,2S)-1,2-Dihydroxy-propyl)-3-fluoro-pyridin-2-yl]piperazine-1-carboxylic acid (6-methyl-benzothiazol-2-yl)-amide] |
| 0.5 °C | 101.5 ± 0.8 nM | C[C@@H]1CN(C(=O)Nc2nc3cc(F)c(F)cc3s2)CCN1c1ncc([C@H](O)CO)cc1F [AE, (R)—N-(5,6-difluorobenzo[d]thiazol-2-yl)-4-{5-[(S)-1,2-dihydroxyethyl]-3-fluoropyridin-2-yl}-3-methylpiperazine-1-carboxamide] |
| 0.2 °C | – | Cc1ccc2nc(NC(=O)N3CCN(c4ncc([C@H](O)CO)cc4F)C[C@@H]3C)sc2c1 [A126(a), (S)-4-(5-((S)-1,2-dihydroxyethyl)-3-fluoropyridin-2-yl)-2-methyl-N-(6-methylbenzo[d]thiazol-2-yl)piperazine-1-carboxamide] |
